Reference: ChEMBL document CHEMBL1155741, “Ellagitannins and hexahydroxydiphenoyl esters as inhibitors of vertebrate squalene epoxidase” (J Nat Prod, 2001)
pIC50: −log10 of the molar value.

Experiments:
Squalene monooxygenase [1] = target: T1, Squalene monooxygenase (Rattus norvegicus, UniProt P52020); experiment: Inhibition of C-terminal hexahistidine-tagged rat recombinant squalene epoxidase without N-terminal putative membrane domain expressed in Escherichia coli
Squalene epoxidase = Squalene epoxidase (Sus scrofa, UniProt A7L861); experiment: Inhibition of pig squalene epoxidase
Chain of Squalene epoxidase (A7L861 whole entry): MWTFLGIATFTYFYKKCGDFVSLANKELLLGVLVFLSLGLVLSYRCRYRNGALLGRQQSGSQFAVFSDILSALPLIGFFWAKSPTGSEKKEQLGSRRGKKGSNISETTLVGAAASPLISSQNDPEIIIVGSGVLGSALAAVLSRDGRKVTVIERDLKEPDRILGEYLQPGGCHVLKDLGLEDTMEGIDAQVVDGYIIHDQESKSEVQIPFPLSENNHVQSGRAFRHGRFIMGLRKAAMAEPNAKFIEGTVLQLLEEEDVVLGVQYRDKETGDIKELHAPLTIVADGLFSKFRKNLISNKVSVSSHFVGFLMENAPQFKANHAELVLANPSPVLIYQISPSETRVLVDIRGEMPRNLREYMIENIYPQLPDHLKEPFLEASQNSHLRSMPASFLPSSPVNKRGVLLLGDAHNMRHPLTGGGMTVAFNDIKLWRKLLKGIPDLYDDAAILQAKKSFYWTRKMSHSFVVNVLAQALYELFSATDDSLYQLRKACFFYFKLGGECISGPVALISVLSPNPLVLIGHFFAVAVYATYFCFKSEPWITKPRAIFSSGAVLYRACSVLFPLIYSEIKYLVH

Squalene monooxygenase [2] = target: T1, Squalene monooxygenase; experiment: Inhibition of rat squalene epoxidase

T1 sequence (P52020 whole entry, the tested form may be a part): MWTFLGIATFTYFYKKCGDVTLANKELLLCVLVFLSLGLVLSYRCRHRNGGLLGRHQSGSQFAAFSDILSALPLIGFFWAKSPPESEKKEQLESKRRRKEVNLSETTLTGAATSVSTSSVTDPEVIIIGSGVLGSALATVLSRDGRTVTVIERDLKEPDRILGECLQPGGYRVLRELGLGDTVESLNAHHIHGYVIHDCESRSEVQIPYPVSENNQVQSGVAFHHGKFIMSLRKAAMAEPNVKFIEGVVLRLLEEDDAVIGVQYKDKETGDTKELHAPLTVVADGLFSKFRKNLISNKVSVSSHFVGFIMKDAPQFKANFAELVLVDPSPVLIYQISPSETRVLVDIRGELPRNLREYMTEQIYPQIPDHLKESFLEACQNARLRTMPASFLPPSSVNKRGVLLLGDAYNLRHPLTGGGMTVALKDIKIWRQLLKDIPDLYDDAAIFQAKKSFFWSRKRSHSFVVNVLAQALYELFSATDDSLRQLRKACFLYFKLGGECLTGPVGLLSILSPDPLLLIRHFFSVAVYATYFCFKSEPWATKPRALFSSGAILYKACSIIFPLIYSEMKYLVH

| Structure (SMILES) | pIC50 (Squalene monooxygenase [1]) | also measured |
| --- | --- | --- |
| CCCCCCCCOC(=O)c1cc(O)c(O)c(O)c1 [OCTYL_GALLATE] | 6.08 | – |
| CC(C)=CCC/C(C)=C/CC/C(C)=C/CC/C=C(\C)CC/C=C(\C)CCCO [TRISNORSQUALENE ALCOHOL] | – | pIC50 (Squalene epoxidase): 5.40 |
| O=C(O[C@@H]1O[C@@H]2COC(=O)c3cc(O)c(O)c(O)c3-c3c(cc(Oc4c(C(=O)O)cc(O)c(O)c4O)c(O)c3O)C(=O)O[C@H]([C@H]1O)[C@@H]2O)c1cc(O)c(O)c(O)c1 [MALLOTINIC ACID] | 5.10 | – |
| O=C(O)C[C@H]1C(=O)O[C@H]2[C@H](OC(=O)c3cc(O)c(O)c(O)c3)[C@@H](OC(=O)c3cc(O)c(O)c4c3[C@H]1[C@H](O)C(=O)O4)[C@H](OC(=O)c1cc(O)c(O)c(O)c1)O[C@@H]2COC(=O)c1cc(O)c(O)c(O)c1 [CHEBULINIC ACID] | 4.92 | – |
| O=C1O[C@H]2[C@@H]3OC(=O)c4cc(Oc5c(C(=O)O)cc(O)c(O)c5O)c(O)c(O)c4-c4c(cc(O)c(O)c4O)C(=O)OC[C@H]2O[C@@H](OC(=O)c2cc(O)c(O)c(O)c2)[C@@H]3OC(=O)c2cc(O)c(O)c3c2[C@@H]2C1=CC(=O)[C@](O)(O3)C2(O)O [MALLOTUSINIC ACID] | 5.10 | – |
| CCOC(=O)c1cc(O)c(O)c(O)c1 [ETHYLGALLATE] | 5.38 | – |
| O=c1oc2c(O)c(O)cc3c(=O)oc4c(O)c(O)cc1c4c23 [ELLAGIC ACID] | 5.70 | – |
| O=C(O)c1cc(O)c(O)c(O)c1 [GALLIC ACID] | 4.14 | – |
| O=C1O[C@H]2[C@H](O)[C@@H](OC(=O)c3cc(O)c(O)c4c3[C@@H]3C1=CC(=O)C(O)(O)C3(O)O4)[C@H](OC(=O)c1cc(O)c(O)c(O)c1)O[C@@H]2CO (some centres undefined) [FUROSIN] | 5.00 | – |
| CCCCCCCCOC(=O)c1cc(O)c(O)c(O)c1-c1c(C(=O)OCCCCCCCC)cc(O)c(O)c1O | 6.08 | – |
| COC(=O)c1cc(O)c(O)c(O)c1-c1c(C(=O)OC)cc(O)c(O)c1O | 4.79 | – |
| O=C1O[C@@H]2[C@@H](OC(=O)c3cc(O)c(O)c(O)c3-c3c1cc(O)c(O)c3O)[C@H](O)O[C@@H]1COC(=O)c3cc(O)c(O)c(O)c3-c3c(O)c(O)c4oc(=O)c5c(c(O)c(O)c6oc(=O)c3c4c65)-c3c(cc(O)c(O)c3O)C(=O)O[C@@H]21 [PUNICALAGIN] | 4.40 | – |
| O=C(OC[C@H]1O[C@@H](OC(=O)c2cc(O)c(O)c(O)c2)[C@H](OC(=O)c2cc(O)c(O)c(O)c2)[C@@H](OC(=O)c2cc(O)c(O)c(O)c2)[C@@H]1OC(=O)c1cc(O)c(O)c(O)c1)c1cc(O)c(O)c(O)c1 [PENTAGALLOYL GLUCOSE] | 6.33 | – |
| CC(C)=CCC/C(C)=C/CC/C(C)=C/CC/C=C(\C)CC/C=C(\C)CCCNC1CC1 [TRISNORSQUALENE CYCLOPROPYLAMINE] | – | pIC50 (Squalene epoxidase): 5.70 |
| O=C(OC[C@H]1O[C@@H](OC(=O)c2cc(O)c(O)c(O)c2)[C@H](OC(=O)c2cc(O)c(O)c(O)c2)[C@@H](O)[C@@H]1O)c1cc(O)c(O)c(O)c1 | – | pIC50 (Squalene monooxygenase [2]): 6.20 |
| O=C(O[C@@H]1O[C@@H]2COC(=O)c3cc(O)c(O)c(O)c3-c3c(O)c(O)c(O)c(Oc4cc(C(=O)O[C@@H]5O[C@@H]6COC(=O)c7cc(O)c(O)c(O)c7-c7c(cc(O)c(O)c7O)C(=O)O[C@H]6[C@@H]6OC(=O)c7cc(O)c(O)c(O)c7-c7cc(O)c(O)c(O)c7C(=O)O[C@@H]56)cc(O)c4O)c3C(=O)O[C@H]2[C@@H]2OC(=O)c3cc(O)c(O)c(O)c3-c3c(cc(O)c(O)c3O)C(=O)O[C@@H]12)c1cc(O)c(O)c(O)c1 | 4.92 | – |
| O=C(OC[C@H]1O[C@@H](OC(=O)c2cc(O)c(O)c(O)c2)[C@H](OC(=O)c2cc(O)c(O)c(O)c2)[C@@H](OC(=O)c2cc(O)c(O)c(O)c2)[C@@H]1OC(=O)c1cc(O)c(O)c(O)c1Oc1cc2c(c(O)c1O)-c1c(cc(O)c(O)c1O)C(=O)O[C@H]1[C@H](OC(=O)c3cc(O)c(O)c(O)c3)[C@@H](OC(=O)c3cc(O)c(O)c(O)c3)[C@H](OC(=O)c3cc(O)c(O)c(O)c3)O[C@@H]1COC2=O)c1cc(O)c(O)c(O)c1 [PHYLLYRAEOIDIN] | 4.00 | – |
| O=C1OC[C@H]2OC(O)[C@@H]3OC(=O)c4cc(O)c(O)c(O)c4-c4c(cc(O)c(O)c4O)C(=O)O[C@H]3[C@@H]2OC(=O)c2cc(O)c(O)c(O)c2-c2c1cc(O)c(O)c2O (some centres undefined) [PEDUNCULAGIN] | 5.70 | – |
| CCOC(=O)c1cc(O)c(O)c(O)c1-c1c(C(=O)OCC)cc(O)c(O)c1O | 4.88 | – |
| O=C(O[C@@H]1[C@@H](c2c(O)cc(O)c3c2O[C@H](c2ccc(O)c(O)c2)[C@H](OC(=O)c2cc(O)c(O)c(O)c2)C3)c2c(O)cc(O)cc2O[C@@H]1c1ccc(O)c(O)c1)c1cc(O)c(O)c(O)c1 | – | pIC50 (Squalene monooxygenase [2]): 6.27 |

| Structure (SMILES) | pIC50 (Squalene monooxygenase [1]) | also measured |
| --- | --- | --- |
| CCCCOC(=O)c1cc(O)c(O)c(O)c1-c1c(C(=O)OCCCC)cc(O)c(O)c1O | 5.10 | – |
| O=C1O[C@H]2[C@@H]3OC(=O)c4cc(O)c(O)c(O)c4-c4c(cc(O)c(O)c4O)C(=O)OC[C@H]2O[C@@H](OC(=O)c2cc(O)c(O)c(O)c2)[C@@H]3OC(=O)c2cc(O)c(O)c3c2[C@@H]2C1=CC(=O)[C@](O)(O3)C2(O)O [GERANIIN] | 5.39 | – |
| CCCCCCCCCCOC(=O)c1cc(O)c(O)c(O)c1-c1c(C(=O)OCCCCCCCCCC)cc(O)c(O)c1O | 5.96 | – |
| CC(C)=CCC/C(C)=C/CC/C(C)=C/CC/C=C(\C)CC/C=C(\C)CCC=C(F)F [TRISNORSQUALENE DIFLUOROMETHYLIDENE] | – | pIC50 (Squalene monooxygenase [2]): 5.27 |
| CCCCCCCCCCCCCCCCOC(=O)c1cc(O)c(O)c(O)c1 [HEXADECYL GALLATE] | 6.23 | – |
| O=C1OC[C@H]2OC(=O)c3cc(O)c(O)c(O)c3-c3c(O)c(O)c(O)c4c3C(=O)O[C@H]([C@H]3OC(=O)c5c-4c(O)c(O)c(O)c5[C@H]3O)[C@@H]2OC(=O)c2cc(O)c(O)c(O)c2-c2c1cc(O)c(O)c2O [CASTALAGIN] | 4.52 | – |
| O=C(O[C@@H]1Cc2c(O)cc(O)cc2O[C@@H]1c1cc(O)c(O)c(O)c1-c1c([C@H]2Oc3cc(O)cc(O)c3C[C@H]2OC(=O)c2cc(O)c(O)c(O)c2)cc(O)c(O)c1O)c1cc(O)c(O)c(O)c1 [THEASINENSIN A] | – | pIC50 (Squalene monooxygenase [2]): 6.89 |
| CCCCCCCCCCCCCCCCCCOC(=O)c1cc(O)c(O)c(O)c1-c1c(C(=O)OCCCCCCCCCCCCCCCCCC)cc(O)c(O)c1O | 4.33 | – |
| O=C(O)C[C@@H]1C(=O)O[C@H]2[C@@H]3OC(=O)c4cc(O)c(O)c(O)c4-c4c(cc(O)c(O)c4O)C(=O)OC[C@H]2O[C@@H](OC(=O)c2cc(O)c(O)c(O)c2)[C@@H]3OC(=O)c2cc(O)c(O)c3c2[C@H]1[C@H](O)C(=O)O3 [CHEBULAGIC ACID] | 5.49 | – |
| CCCCCCCCCCCCCCCCOC(=O)c1cc(O)c(O)c(O)c1-c1c(C(=O)OCCCCCCCCCCCCCCCC)cc(O)c(O)c1O | 5.60 | – |
| O=C1OC[C@H]2O[C@@H](O)[C@H](O)[C@@H](O)[C@@H]2OC(=O)c2cc(O)c(O)c(O)c2-c2c(O)c(O)c3oc(=O)c4c(c(O)c(O)c5oc(=O)c2c3c54)-c2c1cc(O)c(O)c2O [PUNICALIN] | 4.70 | – |
| CCCCCCCCCCCCOC(=O)c1cc(O)c(O)c(O)c1-c1c(C(=O)OCCCCCCCCCCCC)cc(O)c(O)c1O | 5.89 | – |
| O=C(O[C@@H]1O[C@@H]2COC(=O)c3cc(O)c(O)c(O)c3-c3c(cc(O)c(O)c3O)C(=O)O[C@H]2[C@@H]2OC(=O)c3cc(O)c(O)c(O)c3-c3c(cc(O)c(O)c3O)C(=O)O[C@@H]12)c1cc(O)c(O)c(O)c1 | 5.15 | – |
| O=C(O[C@@H]1O[C@@H]2COC(=O)c3cc(O)c(O)c(O)c3-c3c(cc(O)c(O)c3O)C(=O)O[C@H]([C@H]1O)[C@@H]2O)c1cc(O)c(O)c(O)c1 [CORILAGIN] | 5.40 | – |
| CCCCCCOC(=O)c1cc(O)c(O)c(O)c1-c1c(C(=O)OCCCCCC)cc(O)c(O)c1O | 6.03 | – |
| CCCCCCCCCCCCCCOC(=O)c1cc(O)c(O)c(O)c1-c1c(C(=O)OCCCCCCCCCCCCCC)cc(O)c(O)c1O | 5.82 | – |
| O=C(O[C@@H]1COC(=O)c2cc(O)c(O)c(O)c2-c2c(cc(O)c(O)c2O)C(=O)O[C@H]1[C@@H]1OC(=O)c2cc(O)c(O)c(O)c2-c2c(O)c(O)c(O)c3c2C(=O)O[C@H]1[C@@H]3O)c1cc(O)c(O)c(O)c1 [CASUARININ] | 4.47 | – |
| O=C(O[C@@H]1O[C@@H]2COC(=O)c3cc(O)c(O)c(O)c3-c3c(cc(O)c(O)c3O)C(=O)O[C@H]2[C@H](OC(=O)c2cc(O)c(O)c(O)c2)[C@H]1OC(=O)c1cc(O)c(O)c(O)c1)c1cc(O)c(O)c(O)c1 [EUGENIIN] | 5.80 | – |
| O=C1O[C@H]2[C@H](O)[C@@H](CO)OC(O)[C@@H]2OC(=O)c2cc(O)c(O)c(O)c2-c2c1cc(O)c(O)c2O (some centres undefined) | 4.49 | – |
